Assay results published in article PMC9788418, “Design, Synthesis and Biological Evaluation of Syn and Anti-like Double Warhead Quinolinones Bearing Dihydroxy Naphthalene Moiety as Epidermal Growth Factor Receptor Inhibitors with Potential Apoptotic Antiproliferative Action” (Molecules, 2022).

Key:
caspase-3 = assay: Caspase-3 activation assay
Experimental: record autophosphorylation level, EGFR kinase assay was carried out based on DELFIA/Time-
Resolved Fluorometry. The compounds were first dissolved in DMSO absolute, after dilution to
Each compound (10 µL) was incubated
with recombinant enzyme (10 µL, 5 ng for EGFR, 1:80 dilution in 100 mM HEPES) for 10 min at
25 °C, after the addition of 5X buffer (10 µL, containing 2 mM MnCl2, 100 µM Na3VO4, 20 mM HEPES and 1 mM DTT) and ATP-MgCl2 (20 µL, containing 0.1 mM ATP and 50 mM MgCl2) and
incubation for 1h. The negative and positive controls were included in each plate by the incubation
of enzyme either with or without ATP-MgCl2. The liquid was removed after incubation and the plates
were washed thrice using wash buffer. Europium-tagged antiphosphotyrosine antibody (75 µL, 400
ng) was added to each well followed by incubation of 1h and then washing of the plates using buffer.
The enhancement solution was added to each well and the signal was recorded at excitation and
The autophosphorylation percentage inhibition by compounds was calculated using the following equation:

caspase-9 = assay: Caspase-9 level assay; assay type: cell-based, human
Experimental: The impact of compounds 4a and 4b on caspase-8 and caspase-9 was also assessed to clarify how compounds 4a and 4b induce apoptosis by activating the intrinsic or extrinsic route.

Cytochrome C = Cytochrome C assay; assay type: cell-based, human
Experimental: The concentration of Cytochrome c in a cell is crucial for activating caspases and starting the intrinsic apoptosis process. […]
(§1) plate cover and incubate at room temperature, on a microplate shaker at 100 rpm if available, for 1 hour. Remove plate cover and empty the wells. Wash microwell strips 3 times as described in step 2.
(§2) Proceed to the next step. Pipette 100 μl of mixed TMB Substrate Solution to all wells, including the […]
(§3) available on a rotator set at 100 rpm. Avoid direct exposure to intense light. The point, at which the substrate reaction is stopped, is often determined by the ELISA reader. Many ELISA readers record absorbance only up to 2.0 O.D. Therefore, the color development within individual microwells must be watched by the person running the assay and the substrate reaction stopped before positive wells are no longer properly detectable. Stop the enzyme reaction by quickly pipetting 100 μL of Stop Solution into each well, including the blank wells. It is important that the Stop Solution is spread quickly and uniformly throughout the microwells to completely inactivate the enzyme. Results must be read immediately after the Stop Solution is added or within one hour if the microwell strips are stored at 2 - 8°C in the dark. Read absorbance of each microwell on a spectrophotometer using 450 nm as the primary wave length.
4.2.6. Cytochrome C assay […]
cytochrome C, and lysed with Cell Extraction Buffer. This lysate was diluted in Standard Diluent Buffer over the range of the assay and measured for cytochrome C content. (Cells are Plated in cells/well in a volume of 100µl complete growth medium + 100 µl of the tested compound + 50 µl of 1X biotin conjugated antibody+ 100 µl of 1X streptavidin-HRP+ 100 µL TMB substrate soln of per well in a 96-well plate for 24 hours before assay).
4.3. Statistical analysis
Computerized Prism 5 program was used to statistically analyzed data using one-way ANOVA test followed by Tukey’s as post ANOVA for multiple comparison at P ≤.05. Data were presented as […]

Bcl-2 = Bcl-2 inhibition assay; assay type: cell-based, human
Experimental: 4.2.5. Bcl-2inhibition assay
Mix all reagents thoroughly without foaming before use. Wash the microwells twice with approximately 300 μL Wash Buffer per well with thorough aspiration of microwell contents between washes. Take caution not to scratch the surface of the microwells. After the last wash, empty the wells and tap microwell strips on absorbent pad or paper towel to remove excess Wash Buffer. Use the microwell strips immediately after washing or place upside down on a wet absorbent paper for not […]
longer than 15 minutes. […] Add 100 μL of Sample Diluent in duplicate to all standard wells and to the blank wells. Prepare standard (1:2 dilution) in duplicate ranging from 32 ng/mL to 0.5 ng/mL. Add 100 μL of Sample Diluent, in duplicate, to the blank wells. Add 80 μL of Sample Diluent, in duplicate, to the sample wells. Add 20 μL of each Sample, in duplicate, to the designated wells. Add 50 μL of diluted biotin-conjugate to all wells, including the blank wells. Cover […]
Remove plate cover and empty the wells. […]
as §1, §2
as §3, with “length. […]” for “length.”

caspase-8 = assay: Caspase-8 activation assay; assay type: cell-based, human
Bax = Bax activation assay; assay type: cell-based, human; details: for Bax Conc: A-549
Experimental: 8, and lysed with Cell Extraction Buffer. This lysate was diluted in Standard Diluent Buffer over the range of the assay and measured for human active caspase-8 content. (cells are Plated in a density of 1.2 – 1.8 × 10,000 cells/well in a volume of 100µl complete growth medium + 100 ul of the tested compound per well in a 96-well plate for 24 hours before the enzyme assay for […].). […]
4.2.4. Bax activation assay
Bring all reagents, except the human Bax-α Standard, to room temperature for at least 30 minutes prior to opening. The human Bax-α Standard solution should not be left at room temperature for more than 10 minutes. All standards, controls and samples should be run in duplicate. Refer to the Assay Layout Sheet to determine the number of wells to be used and put any remaining wells with the desiccant back into the pouch and seal the ziploc. Store unused wells at 4 °C. Pipet 100 μL of Assay Buffer into the S0 (0 pg/mL standard) wells. Pipet 100 μL of Standards #1 through #6 into the appropriate wells. Pipet 100 μL of the Samples into the appropriate wells. Tap the plate gently to mix the contents. Seal the plate and incubate at room temperature on a plate shaker for 1 hour at ~500 rpm. Empty the contents of the wells and wash by adding 400 μL of wash solution to every well.
Repeat the wash 4 more times for a total of 5 washes. After the final wash, empty or aspirate the wells and firmly tap the plate on a lint free paper towel to remove any remaining wash buffer. Pipet 100 μL of yellow Antibody into each well, except the Blank. Seal the plate and incubate at room temperature on a plate shaker for 1 hour at ~500 […]
wells and firmly tap the plate on a lint free paper towel to remove any remaining wash buffer. Add […]
100 μL of blue Conjugate to each well, except the Blank. Seal the plate and incubate at room temperature on a plate shaker for 30 minutes at ~500 rpm. Empty the contents of the wells and wash by adding 400 μL of wash solution to every well. Repeat the wash 4 more times for a total of 5 washes. After the final wash, empty or aspirate the wells and firmly tap the plate on a lint free paper towel to remove any remaining wash buffer. Pipet 100 μL of Substrate Solution into each well.
Incubate for 30 minutes at room temperature on a plate shaker at ~500 rpm. Pipet 100 μL Stop Solution to each well. Blank the plate reader against the Blank wells, read the optical density at 450 nm. Calculate the average net Optical Density (OD) bound for each standard and sample by subtracting the average Blank OD from the average OD for each standard and sample. Using linear graph paper, plot the Average Net OD for each standard versus Bax concentration in each standard.
Approximate a straight line through the points. The concentration of Bax in the unknowns can be determined by interpolation. […]

[1] = A-549, vs control untreated cells

COc1cccc2c1C(=O)c1c(O)c3c(c(O)c1C2=O)C[C@@](O)(C(=O)CO)C[C@@H]3O[C@H]1C[C@H](N)[C@H](O)[C@H](C)O1 [Doxorubicin, reference compound]
Caspase-3 Conc (caspase-3; A-549): 503.25 ± 4.50 pg/mL
Caspase-3 Fold Change (caspase-3; [1]): 7.70
Caspase-9 Conc (caspase-9): 16.25 ng/mL
Caspase-9 Fold Change (caspase-9; vs control cells): 17.00
Cytochrome C Conc (Cytochrome C; A-549): 0.60 ng/mL
Cytochrome C Fold Change (Cytochrome C; A-549, vs control): 12
Bcl-2 Conc (Bcl-2; A-549): 1.98 ng/mL
Bcl-2 Fold Reduction (Bcl-2; A-549, vs control): 2.5
Caspase-8 Conc (caspase-8): 1.80 ng/mL
Caspase-8 Fold Change (caspase-8; vs control cells): 9
Bax Conc (Bax): 276.20 pg/mL
Bax Fold Change (Bax; [1]): 33
Bax Conc (Bax; listed as doxorubicin): 276 pg/mL
